In patent US4740476A, “Immunoassay for estriol-3-sulfate” (Nihon Medi-Physics Co., Ltd., priority 1984, dated 1988):
Where a name gives a salt, the structure may show the parent alone.

Target: anti-estriol-3-sulfate antibody immobilized on Sepharose 4B
Test: Scatchard plot of [3H]-estriol-3-sulfate binding to immobilized antibody
Design: species or system guinea pig
Conditions: immobilized antibody 1:500, incubation at 4° C. for 16 hours
Protocol: A plasma specimen (0.1 ml) diluted with tris-HCl buffer (0.1 mol/liter; pH, 8.3) (containing glutamine (0.1 mol/liter)) was added thereto, and the resulting solution was incubated at 4° C. for 16 hours. The mixture was centrifuged at 3500 rpm for 20 minutes. A 0.2 ml aliquot of each supernatant was taken into a counting vial and admixed with Bray's scintillator, and radioactivity was counted in an Aloka LSC-673 liquid scintillation spectrometer. […] FIG. 1 of the accompanying drawing showing the Scatchard plot graph of anti-estriol-3-sulfate antibody immobilized on Sepharose 4B).

Q: For `C[C@]12CC[C@@H]3c4ccc(OS(=O)(=O)O)cc4CC[C@H]3[C@@H]1C[C@@H](O)[C@@H]2O` [Estriol-3-sulfate], which “association constant (Ka)” value is on record?
A: 4.3e+09 L/mol

Tested on: anti-estriol-3-sulfate antibody immobilized on Sepharose 4B
Test: Cross-reaction of various steroids in the radioimmunoassay (50% inhibition of labeled estriol-3-sulfate binding)
Design: species or system guinea pig
Conditions: mass ratio of non-labeled estriol-3-sulfate to each steroid required for 50% inhibition of labeled estriol-3-sulfate binding
Protocol: A plasma specimen (0.1 ml) diluted with tris-HCl buffer (0.1 mol/liter; pH, 8.3) (containing glutamine (0.1 mol/liter)) was added thereto, and the resulting solution was incubated at 4° C. for 16 hours. The mixture was centrifuged at 3500 rpm for 20 minutes. A 0.2 ml aliquot of each supernatant was taken into a counting vial and admixed with Bray's scintillator, and radioactivity was counted in an Aloka LSC-673 liquid scintillation spectrometer.
The cross-reactivity is determined by calculating the mass ratio of non-labeled estriol-3-sulfate to each steriod required to show 50% inhibition of the labeled estiol-3-sulfate binding to the antibody.

Q: With `C[C@]12C[C@H](O)[C@H]3[C@@H](CCC4=CC(=O)CC[C@@]43C)[C@@H]1CC[C@@H]2C(=O)CO` [Corticosterone] as the compound, how does the “Cross-reaction (%)” value read?
A: < 0.001%

Q: For `C[C@]12CC[C@@H]3c4ccc(O[C@@H]5O[C@H](C(=O)O)[C@@H](O)[C@H](O)[C@H]5O)cc4CC[C@H]3[C@@H]1C[C@@H](O)[C@@H]2O` [Estriol-3-glucuronide], which “Cross-reaction (%)” value is on record?
A: 0.050%

Q: `C[C@]12CC[C@@H]3c4ccc(O)cc4CC[C@H]3[C@@H]1C[C@@H](O)[C@@H]2O` [Estriol] was tested. Which “Cross-reaction (%)” value did it give?
A: 0.033%

Q: For `C[C@]12CC[C@@H]3c4ccc(OS(=O)(=O)O)cc4CC[C@H]3[C@@H]1CC[C@@H]2O` [Estradiol-3-sulfate], which “Cross-reaction (%)” value is on record?
A: 0.144%

Q: Which “Cross-reaction (%)” value does the source give for `C[C@]12CC[C@H](O)CC1=CC[C@@H]1[C@@H]2CC[C@]2(C)C(=O)CC[C@@H]12` [Dehydroepiandrosterone] here?
A: < 0.001%

Q: How did the “Cross-reaction (%)” value turn out when `C[C@]12CC[C@H]3[C@@H](CCC4=CC(=O)CC[C@@]43C)[C@@H]1CC[C@@H]2OS(=O)(=O)O` [Testosterone sulfate] was run?
A: 0.004%

Q: With `C[C@]12CCC(=O)C=C1CC[C@@H]1[C@@H]2CC[C@]2(C)C(=O)CC[C@@H]12` [4-Androsterone-3,17-dione] as the compound, how does the “Cross-reaction (%)” value read?
A: < 0.001%

Q: For `CC(=O)[C@H]1CC[C@H]2[C@@H]3CCC4=CC(=O)CC[C@]4(C)[C@H]3CC[C@]12C` [Progesterone], which “Cross-reaction (%)” value is on record?
A: < 0.001%

Q: For `C[C@]12CC[C@@H]3c4ccc(O)cc4CC[C@H]3[C@@H]1CC[C@@H]2O[C@@H]1O[C@H](C(=O)O)[C@@H](O)[C@H](O)[C@H]1O` [Estradiol-17-glucuronide], which “Cross-reaction (%)” value is on record?
A: < 0.001%

Q: Which “Cross-reaction (%)” value does the source give for `C[C@]12CC[C@@H]3c4ccc(OS(=O)(=O)O)cc4CC[C@H]3[C@@H]1C[C@@H](O)[C@@H]2O` [Estriol-3-sulfate] here?
A: 100%

Q: `C[C@]12CC[C@@H](O)C[C@@H]1CC[C@@H]1[C@@H]2CC[C@]2(C)C(=O)CC[C@@H]12` [Androsterone] was tested. Which “Cross-reaction (%)” value did it give?
A: < 0.001%

Q: Which “Cross-reaction (%)” value does the source give for `C[C@]12CC[C@@H]3c4ccc(O)cc4CC[C@H]3[C@@H]1CC[C@@H]2O` [Estradiol] here?
A: < 0.001%

Q: With `C[C@]12CC[C@H](OS(=O)(=O)O)CC1=CC[C@@H]1[C@@H]2CC[C@]2(C)C(=O)CC[C@@H]12` [Dehydroepiandrosterone sulfate] as the compound, how does the “Cross-reaction (%)” value read?
A: 0.077%

Q: With `C[C@]12CC[C@@H]3c4ccc(O)cc4CC[C@H]3[C@@H]1C[C@@H](O)[C@@H]2O[C@@H]1O[C@H](C(=O)O)[C@@H](O)[C@H](O)[C@H]1O` [Estriol-17-glucuronide] as the compound, how does the “Cross-reaction (%)” value read?
A: < 0.001%

Q: Which “Cross-reaction (%)” value does the source give for `C[C@]12CC[C@@H]3c4ccc(O)cc4CC[C@H]3[C@@H]1C[C@@H](O[C@@H]1O[C@H](C(=O)O)[C@@H](O)[C@H](O)[C@H]1O)[C@@H]2O` [Estriol-16-glucuronide] here?
A: < 0.001%

Q: How did the “Cross-reaction (%)” value turn out when `C[C@]12CC[C@H]3[C@@H](CCC4=CC(=O)CC[C@@]43C)[C@@H]1CC[C@@H]2O` [Testosterone] was run?
A: < 0.001%

Q: With `COc1ccc2c(c1)CC[C@@H]1[C@@H]2CC[C@]2(C)C(=O)CC[C@@H]12` [Estrone methyl ether] as the compound, how does the “Cross-reaction (%)” value read?
A: < 0.001%

Q: For `C[C@]12CC[C@@H]3c4ccc(O)c(O)c4CC[C@H]3[C@@H]1CCC2=O` [4-Hydroxyestrone], which “Cross-reaction (%)” value is on record?
A: < 0.001%

Q: How did the “Cross-reaction (%)” value turn out when `C[C@]12CC[C@@H]3c4ccc(O[C@@H]5O[C@H](C(=O)O)[C@@H](O)[C@H](O)[C@H]5O)cc4CC[C@H]3[C@@H]1CCC2=O` [Estrone glucuronide] was run?
A: < 0.001%

Q: For `C[C@]12CC[C@@H]3c4ccc(O)cc4CC[C@H]3[C@@H]1CCC2=O` [Estrone], which “Cross-reaction (%)” value is on record?
A: < 0.001%

Q: Which “Cross-reaction (%)” value does the source give for `CC(C)CCC[C@@H](C)[C@H]1CC[C@H]2[C@@H]3CC=C4C[C@@H](OS(=O)(=O)O)CC[C@]4(C)[C@H]3CC[C@]12C` [Cholesterol sulfate] here?
A: 0.081%

Q: For `C[C@]12CC[C@@H]3c4ccc(OS(=O)(=O)O)cc4CC[C@H]3[C@@H]1CCC2=O` [Estrone sulfate], which “Cross-reaction (%)” value is on record?
A: 0.060%

Q: `C[C@]12CC[C@@H]3c4ccc(O)cc4CC[C@H]3[C@@H]1C[C@H](O)[C@@H]2O` [16-Epiestriol] was tested. Which “Cross-reaction (%)” value did it give?
A: < 0.001%

Q: `CC(C)CCC[C@@H](C)[C@H]1CC[C@H]2[C@@H]3CC=C4C[C@@H](O)CC[C@]4(C)[C@H]3CC[C@]12C` [Cholesterol] was tested. Which “Cross-reaction (%)” value did it give?
A: < 0.001%

Q: For `C[C@]12CC[C@@H]3c4cc(O)c(O)cc4CC[C@H]3[C@@H]1CCC2=O` [2-Hydroxyestrone], which “Cross-reaction (%)” value is on record?
A: < 0.001%

Same assay, conditions: mass ratio of non-labeled estriol-3-sulfate to each steroid required for 50% inhibition of labeled estriol-3-sulfate binding; listed as dehydroepiandrosterone sulfate

Q: Which “Cross-reaction (%)” value does the source give for `C[C@]12CC[C@H](OS(=O)(=O)O)CC1=CC[C@@H]1[C@@H]2CC[C@]2(C)C(=O)CC[C@@H]12` [Dehydroepiandrosterone sulfate] here?
A: 0.77%
